Assay results published in PMC10761119, “Phosphorylation-state dependent intraneuronal sorting of Aβ differentially impairs autophagy and the endo-lysosomal system” (Autophagy, 2023).

Assays:
[1] = system: SH-SY5Y cells; assay: Lysosomal acidification assay using LysoSensor-dextran; type: cell-based, human; conditions: Aβ 1 µM, within 24 h of incubation; ΔpH = pHfinal (t = 24 h) − pHinitial (control, t = 0 h); n = 12, N = 4
Method: Cells were cultured on coverslips and treated with Aβ variants (primary cortical neurons, DIV14–500 nM, 4 h; SH-SY5Y cells, D3–1 μM, 24 h) in presence of 50 µM LysoSensor-dextran probe (ThermoFisher Scientific, L7545) in cell culture media for the indicated time points. Cells were washed and stained as described before. For fluorescence analyses, cells were cultured and treated in a 96-well plate for the indicated time points, and washed thrice with PBS to remove the excess probe. Fluorescence intensity analysis of blue and green channel was done using a multiplate reader (Tecan Life Sciences, Switzerland). […] was computed from the fluorescence values measured at λEx 340 nm and λEm 450 nm (blue channel) and λEm 535 nm (green channel), respectively. Values were normalized to absorbance at 340 nm and protein content per well, and represented as change of LysoSensor acidification with respect to control cells (Figure 7B and S7C-D). pH values were computed by preparing a standard curve, wherein cells treated with 1 µM nigericin (Sigma Aldrich, N7143) and 1 µM monensin (Sigma Aldrich, M5273) were incubated with media of pH 4.5, 7.5 and 9.2. As independent controls, 100 nM bafilomycin A1 (Sigma Aldrich, 553210), 1 mM NH4Cl- and 10 µM rapamycin (Cayman Chemicals, 19438)-treated cells were also used as independent controls to validate the measurements. Change in LysoSensor pH (ΔpH) for Aβ treated cells was quantified using the formula ΔpH = pHfinal (control/Aβ, t = 24 h) − pHinitial (control, t = 0 h). Box plots (Figure 7C and S7E) depict the overall distribution of data, and each data point represents average values from an independent experiment; n = 12, N = 4.

[2] = system: SH-SY5Y cells; assay: Quantitative western immunoblotting of autophagy and endo-lysosomal proteins; type: cell-based, human; conditions: Aβ 1 µM, 24 h, n = 6, N = 3
Method: (§1) SH-SY5Y cells seeded on D1, were treated with Aβ variants (1 μM) on D3 in DMEM/F-12 media without serum and antibiotics. Control treatment included treatment with equal volume of 10 mM NaOH solution used for preparing the Aβ stock solutions, in respective cell culture medium. SH-SY5Y cells, after 16 h of transient expression of the reporter constructs, were treated with different Aβ variants, autophagy modulator substrates and respective controls in DMEM/F-12, FCS^− PS^− media for the mentioned time points. After treatment, cells were washed twice with PBS and with 0.025% trypsin-EDTA in PBS to get rid of cell bound Aβ, followed by subsequent washings with PBS again. Cells were either collected by scraping using a cell-scraper or fixed with 4% PFA-PBS for 15 min at RT, for further immunocytochemistry experiments. Collected treatment media was centrifuged at 1000 g for 5 min, pellet discarded and supernatant frozen at −20°C until further usage.
(§2) Cells were collected by scraping and mechanically homogenized in hypotonic D buffer (10 mM Tris-HCl, pH 7.4, 10 mM NaCl, 0.1 mM EGTA, 25 mM glycerol 2-phosphate, 1 mM DTT) containing protease and phosphatase inhibitors by repeated suspension through a 23 G × 1” needle. Post-nuclear supernatant (PNS) was collected by centrifugation of the mechanically homogenized cellular material at 2,000 g for 5 min. The pellet was the nuclear material. Nuclear pellet was then resuspended in Buffer C (5 mM HEPES, 1.5 mM MgCl2, 0.2 mM EDTA, 0.5 mM DTT, 0.05% NP40 [Sigma Aldrich, 18876], 30% glycerol, pH 7.9) containing protease and phosphatase inhibitors, ultrasonicated at minimum voltage, three currents in four cycles, followed by repetitive cooling of samples on ice. The nuclear fraction was the supernatant collected after centrifugation at 16,100 g for 15 min. The PNS collected from the first step was centrifuged at 16,100 g for 60 min, and supernatant was used as the crude cytosolic fraction. The pellet contained the membrane materials, which were re-homogenized in hypotonic D buffer and again centrifuged at 16,100 g for 60 min. The supernatant was discarded, pellet was resuspended in STEN-lysis buffer (20 mM Tris-HCl, pH 7.5, 150 mM NaCl, 1 mM EDTA, 1 mM EGTA, 1% Triton X-100, 2.5 mM sodium pyrophosphate [Sigma Aldrich, P1835], 1 mM β-glycerophosphate [Sigma Aldrich, G9422]) containing protease and phosphatase inhibitors, and the membrane fraction was the supernatant collected after centrifugation at 16,100 g for 15 min. The crude cytosolic fraction was then further fractionated at 100,000 g for 70 min at 4°C under vacuum. The resultant supernatant was the soluble cytosolic fraction. The pellet was resuspended in STEN lysis buffer and centrifuged at 16,100 g for 15 min. The resultant supernanant represented the insoluble cytosolic fraction.
(§3) For different cellular fractions prepared as described earlier, the protein content was estimated using the standard Pierce™ BCA protein assay kit (ThermoFisher Scientific, 23225). For direct comparison between the samples, equal amount of protein was loaded. Samples were dissolved in Laemmli buffer and were boiled at 95°C for 5 min. They were loaded on a precast 4–12% NuPage® Bis-Tris gels (Life technologies, NP033–5/6, WG140–2/3). Gels and prestained protein molecular weight markers were purchased from Life technologies. The separated proteins were electro-transferred onto a 0.2-μm nitrocellulose (NT) membrane (Amersham, 1060001) for 1 h 45 min. After blotting, the NT membranes were boiled in PBS for 10 min. Ponceau staining was done to monitor protein loading of samples. The blots were then incubated in 5% skim milk in TBS-T (TBS [50 mM Tris-HCl, pH 7.5, 150 mM NaCl] containing 0.1% Tween 20 [Sigma Aldrich, P1379]) for 1 h at RT. Blots were incubated overnight at 4°C in the primary antibody solution (respective dilutions in TBS-T, Table 1). Blots were washed and incubated with appropriate secondary antibodies conjugated either with HRP or fluorescent dyes for 1 h. […]

[3] = system: primary cortical neurons; assay: SDS-PAGE and immunoblotting of marker proteins in membrane and cytosolic fractions; type: cell-based, mouse; conditions: Aβ 500 nM, 4 h, normalized to Actin/GAPDH, fold change wrt control cells, mean ± S.E.M., n = 6, N = 3; for CTSD mature* level / CTSD pro* level / EEA1* level / RAB5* level / RAB7* level / RAB11* level / SQSTM1/p62* level / UBQ* level: cytosolic fraction; for ATG3 level / ATG5 level / ATG12–ATG5 level / ATG14 level / LAMP2 level / LC3-I level / LC3-II level / ULK1/Atg1 level: membrane fraction
Method: [Worded in the source for another cell line; used here, by the source, with some conditions changed.] as §1, §2, §3

Substance | Decrease in the pH (LysoSensor response, ΔpH) [1] | ATG1-ULK1 kinase complex level ([2]; western immunoblot vs control) | EEA1 level ([2]; western immunoblot vs control) | RAB5 level ([2]; western immunoblot vs control) | CTSD mature* level [3] [fold change] | CTSD pro* level [3] [fold change] | EEA1* level [3] [fold change] | RAB5* level [3] [fold change] | RAB7* level [3] [fold change] | RAB11* level [3] [fold change] | SQSTM1/p62* level [3] [fold change] | UBQ* level [3] [fold change] | ATG3 level [3] [fold change] | ATG5 level [3] [fold change] | ATG12–ATG5 level [3] [fold change] | ATG14 level [3] [fold change] | LAMP2 level [3] [fold change] | LC3-I level [3] [fold change] | LC3-II level [3] [fold change] | ULK1/Atg1 level [3] [fold change] | further results
amyloid-β phosphorylated at serine residue 8 [p-Ser8Aβ] | did not show any change | not | increased | increased | 0.94 ± 0.09 | 0.99 ± 0.04 | 1.65 ± 0.21 | 1.26 ± 0.09 | 0.95 ± 0.17 | 1.75 ± 0.29 | 1.49 ± 0.06 | 1.62 ± 0.14 | 1.23 ± 0.38 | 1.18 ± 0.1 | 1.18 ± 0.2 | 1.17 ± 0.05 | 0.97 ± 0.06 | 1.43 ± 0.15 | 1.95 ± 0.14 | 0.88 ± 0.22 | Levels of LC3-I and II ([2]; western immunoblot, compared to control cells): significantly increased levels
amyloid-β phosphorylated at serine residue 26 [p-Ser26Aβ] | 0.17 ± 0.12 units | increased | no significant effect | increased | 1.46 ± 0.11 | 1.19 ± 0.05 | 1.28 ± 0.12 | 1.47 ± 0.11 | 1.25 ± 0.12 | 1.89 ± 0.06 | 1.41 ± 0.08 | 2.11 ± 0.4 | 1.38 ± 0.32 | 1.31 ± 0.11 | 1.43 ± 0.23 | 1.58 ± 0.17 | 1.23 ± 0.07 | 1.45 ± 0.12 | 1.42 ± 0.2 | 1.74 ± 0.36 | Intracellular levels of the ATP6V0A1 subunit of the V-ATPase ([2]; PNS fraction): significantly increased levels; Levels of nuclear transcription factor EB (TFEB) ([2]; nuclear material): significantly increased levels; CTSD level ([2]; western immunoblot vs control): selectively increased; LAMP2 level ([2]; western immunoblot vs control): selectively increased; RAB7 level ([2]; western immunoblot vs control): strongest effects; RAB11 level ([2]; western immunoblot vs control): strongest effects
non-phosphorylated amyloid-β [npAβ, reference compound] | 0.13 ± 0.11 units | increased | no significant | no significant | 1.08 ± 0.07 | 0.99 ± 0.06 | 1.22 ± 0.15 | 1.08 ± 0.07 | 1.1 ± 0.08 | 1.47 ± 0.22 | 1.19 ± 0.02 | 1.36 ± 0.19 | 1.23 ± 0.21 | 1.08 ± 0.11 | 1.04 ± 0.09 | 1.27 ± 0.08 | 1.16 ± 0.08 | 1.37 ± 0.06 | 1.48 ± 0.06 | 1.37 ± 0.35 | ATG3 level ([2]; western immunoblot vs control): not; RAB7 level ([2]; western immunoblot vs control): no significant; RAB11 level ([2]; western immunoblot vs control): smallest effect
